# Measurements from publication PMC3664642, “A Peptide against Soluble Guanylyl Cyclase α1: A New Approach to Treating Prostate Cancer” (PLoS ONE, 2013).
# Entries after “also recorded” stand apart in the source; their conditions may differ. Where no end group is shown, it is not given here.
# Tests used:
# [1] = Behavior and weight of mice in the animal studies; assay type: in vivo, mouse
# Method: (§1) 2×10^6 C81 cells in 50 µL of growth medium was mixed with 50 µL Matrigel (BD Biosciences) and injected into both flanks of 4–6-week old SCID male mice. When tumor sizes reached 200 mm^3, 50 µL of Peptide A-8R (40 mg Peptide A-8R/Kg of animal) or Vehicle (DMSO) was directly injected into the tumors every other day. Injections were stopped after 5 times and tumors were measured every 3 days. Mice were euthanized after 3 weeks and tumors were excised. All procedures were approved by the University of Toledo Division of Lab Animal Recourses (DLAR). Protein extracts were prepared by boiling the tumor tissue in 3× SDS buffer, and evaluated by SDS-PAGE gel.
# (§2) This study was carried out in strict accordance with the recommendations in the Guide for the Care and Use of Laboratory Animals of the National Institutes of Health. The protocol was approved by the Institutional Animal Care and Use Committee of the University of Toledo (Protocol Number: 106418). During the experiments all animals were monitored daily for morbidity and all efforts were made to minimize suffering. At the end of the study all animals were euthanized using inhalation of carbon dioxide, after which surgery was performed to excise tumors from all animals.
# [2] = test system: ROS generation in PC-3 cells; assay: ROS generation, PC-3 cells; assay type: cell-based; details: 0–30 min; Fig. S5A
# Method: Intracellular ROS levels were evaluated using the fluorescent probe 5-(and-6)-chloromethyl-2′,7′-dichlorodihydrofluorescein diacetate (CM-H2DCFDA) (Invitrogen). After treatments with Peptide A-8R, C81 cells were loaded with 20 µM CM-H2DCFDA and incubated at 37°C for 30 min in the dark. Cells were then washed with PBS and fluorescence was measured at the excitation and emission wavelengths of 490 and 535 nm, respectively, using a multi-well fluorescence plate reader. For NAC (N-acetyl cysteine) (Sigma) rescue experiment, cells were pretreated with 1 or 5 mM NAC for 2 hours before adding Peptide A-8R.
# Supplementary file pone.0064189.s005.tif: Figure S5 ROS generation is not induced by Peptide A-8R in PC-3 cells and Peptide C-8R in LNCaP cells. (A) PC-3 cells were treated with Vehicle or different concentrations of Peptide A-8R or Peptide C-8R, as shown, or (B) LNCaP cells were treated with Vehicle or different concentrations of Peptide A-8R or Peptide C-8R, or H2O2 and monitored for ROS generation after 0–30 (A) or 30 (B) min. (C) LNCaP cells were treated with Vehicle, Peptide C-8R (10 µM), Peptide A-8R (10 µM), or Etoposide (100 µM) for 0–8 hrs and subjected to a Caspase assay to measure apoptosis. Bar graphs represent averages of three independent experiments plus standard deviations. (C) All activities are relative to the first condition, and this activity was set to either 1. […]
# C81 xenograft tumors = assay: C81 mouse xenograft tumor study; assay type: in vivo
# Method: as §1, §2
# (A) Mouse xenograft tumors derived from C81 cells were treated with Vehicle or Peptide A-8R, after which they were allowed to grow for an additional three weeks without treatment. Data points represent average tumor size of three animals for each treatment plus standard deviations. Note that there is a statistical difference (P<0.00004) in average tumor size for each day of tumor measurement. Arrow represents day of last injection of Vehicle or Peptide A-8R. […] Bar graphs represent averages of each set of three tumors plus standard deviations. Asterisks indicate statistical significance (P<0.02). (C) Two tumors, one on each flank of the same animal, were treated with either Vehicle or Peptide A-8R.
substance,measurement,setting,value
Ac-TFCKAFPFHIIRRRRRRRR [Peptide A-8R],effect on behavior or weight of mice,[1],no effect on the behavior or weight of the mice
same,"ROS generation, PC-3 cells",[2],do not respond; also recorded: not induced
same,"tumor growth during five injections, C81 xenograft","C81 xenograft tumors; 40 mg/Kg intratumoral, every other day, 5 times, Fig. 6A, 6B, three animals per treatment, P<0.00004",stopped tumor growth and actually caused some tumor regression during the five injections of peptide
same,"anti-tumor activity, C81 xenograft (summary)",C81 xenograft tumors; intra-tumoral injection,able to stop tumor growth; also recorded: blocks the growth of castration-resistant prostate tumors; also recorded: strong anti-cancer activity
same,"tumor growth three weeks after treatment stopped, C81 xenograft","C81 xenograft tumors; three weeks after last injection, Vehicle tumors grew more than three-fold, Fig. 6A",did not grow at all three weeks after Peptide treatment was stopped
same,"tumor size in same animal, Peptide- vs Vehicle-treated flank","C81 xenograft tumors; two tumors, one per flank of same mouse, Fig. 6C",markedly smaller than the Vehicle-treated tumor
